Tests used:
LdTOP1LS = assay: Plasmid cleavage assay; format: biochemical, Leishmania donovani; details: 50 µM, pHOT1 DNA
Experimental: Cleavage assay was carried out as described previously. Briefly, 50 fmol of pHOT1 supercoiled DNA (containing topoisomerase I cleavage site) and 100 fmol of reconstituted LdTOP1LS were incubated in standard reaction mixture (50 µl) containing 50 mM Tris/HCl (pH 7.5), 100 mM KCl, 10 mM MgCl2, 0.5 mM DTT, 0.5 mM EDTA and 30 µg/ml BSA in the presence of various concentrations of drugs at 37°C for 30 min. The reactions were terminated by adding 1% SDS and 150 µg/ml proteinase K and further incubated for 1 h at 37°C. DNA samples were electrophoresed in a 1% agarose gel containing 0.5 µg/ml EtBr.
The effect of DIM and its derivatives on L. donovani topoisomerase I was examined by plasmid DNA cleavage assay as described. The topoisomerase reaction has three general mechanistic steps: (i) binding of enzyme to the substrate DNA, (ii) single strand breakage and subsequent strand rotation through the break leading to change in linking number, and (iii) strand religation. The second step of reaction is the introduction of a single-stranded nick in the phosphodiester bond of the DNA, through which an intact strand is allowed to pass. […]

[1] = tested on: L. donovani topoisomerase I; assay: Immunoband depletion assay, topoisomerase I; format: cell-based, Leishmania donovani; details: preincubation with 20 µM DHBA before DIM, DPDIM, DMDIM or DMODIM
Experimental: Leishmania cells (3×10^7) were cultured in absence and presence of the drugs. Nuclear fractions were isolated as described. Briefly, cells were suspended in hypotonic buffer (10 mM Tris-HCl, pH 7.5, 1 mM EDTA, 0.1 mM EGTA, 1 mM PMSF, 1 mM benzamidine hydrochloride and 5 mM DTT) and homogenized. The homogenate was centrifuged for 10 min at 10,000 g. The pellets were washed and used as the source of nuclear fraction. Thereafter, the nuclear fractions were lysed with 1% SDS and subjected to SDS-PAGE (10%). The proteins were electrophoretically transferred to nitrocellulose membranes and immumobloting of immobilized proteins were carried out using a rabbit polyclonal antibody raised against LdTOP1S for topoisomerase I and ATPase domain of L. donovani topoisomerase II [8].
We have reported earlier that DIM induces topoisomerase I and not topoisomerase II-mediated cleavable complex formation in L. donovani. To investigate the ability of DIM derivatives to induce in vivo covalent complex formation between topoisomerase I and DNA in the Leishmania parasites we performed the immunoband depletion experiments with L. donovani promastigotes. Nuclear fractions were prepared from untreated as well as drug-treated promastigotes and subjected to SDS-PAGE. If topoisomerase I can form a covalent complex with genomic DNA inside the cells, then topoisomerase I-DNA cleavable complex cannot enter into the gel. […] The presence of topoisomerase I was detected by immunoblotting as described in ‘Materials and Methods’. It was observed that the immunoband of topoisomerase I disappeared in presence of 20 µM of DIM, DPDIM, DMDIM and DMODIM for 6 h incubation respectively (lanes 2–5). […] It should be mentioned here that topoisomerase I of Leishmania is a heterodimer and the catalytic site (SKXXY) is present in the small subunit of enzyme (LdTOP1S), which is involved in the formation of topoisomerase I-DNA covalent complex. So we have used the antibody raised against the small subunit of L. donovani topoisomerase I to study the immunoband depletion assay.
Figure 6 DIM-derivatives induce in vivo formation of topoisomerase-DNA cleavable complex within the cells. Stabilization of topoisomerase-I mediated cleavable complex was determined by immunoband depletion assay. Top panel: Immunoband depletion of L. donovani topoisomerase I, using an antibody raised against […]. Leishmanial cells were treated with 0.2% DMSO alone (lane 1), 20 µM each of DIM (lane 2), DPDIM (lane 3), DMDIM (lane 4) and DMODIM (lane 5) respectively. Lanes 6–9, preincubation with 20 µM DHBA before treatment with DIM, DPDIM, DMDIM and DMODIM respectively. Bottom panel: β-tubulin loading control.

Structure (SMILES): CC[C@@]1(O)C(=O)OCc2c1cc1n(c2=O)Cc2cc3ccccc3nc2-1 [CPT, camptothecin, reference compound]
- conversion of closed circular DNA (form I) to nicked circular DNA (form II) (LdTOP1LS): totally converted to nicked circular DNA

Structure (SMILES): CC(C)[C@@H]1CC[C@]2(C(=O)O)CC[C@]3(C)C(CCC4[C@@]5(C)CC[C@H](O)C(C)(C)C5CC[C@]43C)C12 (some centres unmarked) [DHBA, reference compound]
- immunoband of topoisomerase I after preincubation before treatment with drugs [1]: reappearance of immunoband

— PMC3236199, “Development of Derivatives of 3, 3′-Diindolylmethane as Potent Leishmania donovani Bi-Subunit Topoisomerase IB Poisons” (PLoS ONE, 2011)
